From patent US20250195524A1, “PYRIMIDO-PYRIDAZINONE COMPOUND AS TOLL-LIKE RECEPTOR AGONIST” (SHANGHAI VISONPHARMA CO., LTD., priority 2022, published 2025)

Key:
human TLR8 = target: T1, human TLR8 (Homo sapiens, UniProt Q9NR97); assay: HEK-Blue hTLR8 SEAP reporter gene agonism assay; format: cell-based; conditions: HEK-Blue hTLR8 cells, SEAP (Quanti-blue, 650 nm), 16-22 hours incubation
T1 construct: host or cells: HEK-Blue hTLR8 (HEK293-derived reporter cells)
T1 sequence (Q9NR97 27-1041): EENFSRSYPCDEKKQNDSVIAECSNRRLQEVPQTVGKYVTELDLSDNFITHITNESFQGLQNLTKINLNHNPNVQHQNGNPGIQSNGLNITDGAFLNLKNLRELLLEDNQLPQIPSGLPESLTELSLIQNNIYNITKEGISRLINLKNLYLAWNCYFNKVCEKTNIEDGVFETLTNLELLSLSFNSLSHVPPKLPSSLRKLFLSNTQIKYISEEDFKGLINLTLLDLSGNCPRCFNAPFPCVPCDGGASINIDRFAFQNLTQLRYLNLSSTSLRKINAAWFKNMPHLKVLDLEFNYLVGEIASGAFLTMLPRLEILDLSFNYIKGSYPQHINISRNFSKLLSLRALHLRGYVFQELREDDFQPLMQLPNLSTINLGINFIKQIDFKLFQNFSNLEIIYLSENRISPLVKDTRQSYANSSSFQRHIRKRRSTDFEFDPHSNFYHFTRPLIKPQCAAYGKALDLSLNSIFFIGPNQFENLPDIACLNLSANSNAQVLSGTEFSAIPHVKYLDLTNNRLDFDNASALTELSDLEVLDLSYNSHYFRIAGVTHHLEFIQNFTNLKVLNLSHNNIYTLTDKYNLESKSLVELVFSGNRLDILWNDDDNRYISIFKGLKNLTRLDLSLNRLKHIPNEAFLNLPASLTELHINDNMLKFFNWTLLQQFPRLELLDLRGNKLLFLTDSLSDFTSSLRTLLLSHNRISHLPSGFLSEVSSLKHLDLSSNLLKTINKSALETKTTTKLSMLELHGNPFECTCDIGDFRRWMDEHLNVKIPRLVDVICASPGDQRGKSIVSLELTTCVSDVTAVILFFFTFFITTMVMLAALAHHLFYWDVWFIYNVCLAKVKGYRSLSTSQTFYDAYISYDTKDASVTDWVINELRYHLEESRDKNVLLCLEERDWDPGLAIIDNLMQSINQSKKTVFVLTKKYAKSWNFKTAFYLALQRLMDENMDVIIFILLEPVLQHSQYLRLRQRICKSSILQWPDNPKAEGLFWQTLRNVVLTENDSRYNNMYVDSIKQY
Description: (§1) The agonistic activity of the compounds of the present invention on TLR7 or TLR8 was evaluated using HEK-Blue™ cells stably expressing human TLR7 or TLR8. And the agonistic activity was assayed using their ability to induce the SEAP reporter gene under the control of the IFN-β minimal promoter fused to five NF-κB and ap-1 binding sites, specifically as follows:
(§2) HEK-Blue™ hTLR7 (Invivogen, 80,000 cells per well) or HEK-Blue™ hTLR8 (Invivogen, 60,000 cells per well) was added to a 96-well cell culture plate, the compound to be tested is added whereafter, and the final concentration of the compound(s) to be tested in the medium ranged from 0.001 to 36 μM, then incubated for 16-22 hours. SEAP levels in the cell culture medium were detected using HEK-Blue assay reagent Quanti-blue (Invivogen) according to the manufacturer's instructions. Neo2 Multifunctional Enzyme Labeler (Bio-tek) was used to determine the light absorption at 650 nm. GraphPad Prism was utilized to calculate the EC50, which is the half effective concentration of the drug.

human TLR7 = target: T2, human TLR7 (Homo sapiens, UniProt Q9NYK1); assay: HEK-Blue hTLR7 SEAP reporter gene agonism assay; format: cell-based; conditions: HEK-Blue hTLR7 cells, SEAP (Quanti-blue, 650 nm), 16-22 hours incubation
T2 construct: host or cells: HEK-Blue hTLR7 (HEK293-derived reporter cells)
T2 sequence (Q9NYK1 27-1049): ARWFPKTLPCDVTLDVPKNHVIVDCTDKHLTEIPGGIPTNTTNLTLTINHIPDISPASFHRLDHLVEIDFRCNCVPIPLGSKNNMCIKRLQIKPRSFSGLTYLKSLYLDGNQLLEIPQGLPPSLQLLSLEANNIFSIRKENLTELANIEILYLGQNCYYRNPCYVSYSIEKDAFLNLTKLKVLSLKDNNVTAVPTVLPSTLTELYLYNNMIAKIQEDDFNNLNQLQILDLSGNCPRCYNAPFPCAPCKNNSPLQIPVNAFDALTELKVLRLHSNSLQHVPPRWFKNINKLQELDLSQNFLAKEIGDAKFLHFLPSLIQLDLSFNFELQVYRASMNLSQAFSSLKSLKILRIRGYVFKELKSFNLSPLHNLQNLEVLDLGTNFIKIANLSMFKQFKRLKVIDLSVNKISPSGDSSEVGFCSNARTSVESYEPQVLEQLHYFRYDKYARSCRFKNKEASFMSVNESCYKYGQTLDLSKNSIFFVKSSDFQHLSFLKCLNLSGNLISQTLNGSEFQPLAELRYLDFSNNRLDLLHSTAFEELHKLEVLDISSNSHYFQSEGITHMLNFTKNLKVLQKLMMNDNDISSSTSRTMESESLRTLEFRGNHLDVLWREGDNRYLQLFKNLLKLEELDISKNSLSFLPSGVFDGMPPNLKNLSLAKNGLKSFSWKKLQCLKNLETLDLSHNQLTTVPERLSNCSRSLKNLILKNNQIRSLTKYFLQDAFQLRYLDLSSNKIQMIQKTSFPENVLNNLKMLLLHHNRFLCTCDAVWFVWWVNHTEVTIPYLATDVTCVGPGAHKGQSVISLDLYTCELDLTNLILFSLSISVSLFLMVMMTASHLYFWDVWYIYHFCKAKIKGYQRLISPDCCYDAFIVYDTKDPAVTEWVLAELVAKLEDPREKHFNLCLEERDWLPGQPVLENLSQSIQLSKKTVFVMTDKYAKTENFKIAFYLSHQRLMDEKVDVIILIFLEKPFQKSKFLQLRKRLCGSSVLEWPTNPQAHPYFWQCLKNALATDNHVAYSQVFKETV
Description: as §1, §2

Row | SMILES | EC50 (human TLR8) [nM] | EC50 (human TLR7) [nM]
1 | CCCN[C@H](C)c1ccc(Cn2ncc3nc(N)nc(N[C@H](C)CCC)c3c2=O)cc1 [Compound I-51, 2-amino-4-(((R)-pentan-2-yl)amino)-6-(4-((R)-1-(propylamino)ethyl)benzyl)pyrimido[4,5-d]pyridazine-5(6H)-one] | 141 | 892
2 | CCC[C@@H](C)Nc1nc(N)nc2cnn(Cc3ccc(CN4CCCC4)cc3OC)c(=O)c12 [Compound I-25, (R)-2-amino-6-(2-methoxy-4-(pyrrolidin-1-ylmethyl)benzyl)-4-(pentan-2-ylamino)pyrimido[4,5-d]pyridazin-5(6H)-one] | 147 | 631
3 | CCC[C@@H](C)Nc1nc(N)nc2cnn(Cc3ccc(CN4CCNCC4)cc3)c(=O)c12 [Compound I-50, (R)-2-amino-4-(pentan-2-ylamino)-6-(4-(piperazin-1-ylmethyl)benzyl)pyrimido[4,5-d]pyridazin-5(6H)-one] | 157 | 770
4 | CCCCNc1nc(N)nc2cnn(Cc3ccc(OCCNC)cc3)c(=O)c12 [Compound I-19, 2-amino-4-(butylamino)-6-(4-(2-(methylamino)ethoxy)benzyl)pyrimido[4,5-d]pyridazin-5(6H)-one] | 149 | 922
5 | CCC[C@@H](C)Nc1nc(N)nc2cnn(Cc3ccc(OCCNC)cc3)c(=O)c12 [Compound I-39, (R)-2-amino-6-(4-(2-(methylamino)ethoxy)benzyl)-4-(pentan-2-ylamino)pyrimido[4,5-d]pyridazin-5(6H)-one] | 181 | 641
6 | CCC[C@@H](C)Nc1nc(N)nc2cnn(Cc3ccc(C(=O)N4CCNCC4)cc3OC)c(=O)c12 [Compound I-24, (R)-2-amino-6-(2-methoxy-4-(piperazine-1-carbonyl)benzyl)-4-(pentan-2-ylamino)pyrimido[4,5-d]pyridazin-5(6H)-one] | 194 | 634
7 | CCC[C@@H](C)Nc1nc(N)nc2cnn(Cc3ccc(OCCNC)nc3OC)c(=O)c12 [Compound I-53, (R)-2-amino-6-((2-methoxy-6-(2-(methylamino)ethoxy)pyridin-3-yl)methyl)-4-(pentan-2-ylamino)pyrimido[4,5-d]pyridazin-5(6H)-one] | 175 | 597
8 | CCC[C@@H](C)Nc1nc(N)nc2cnn(Cc3ccc(C(=O)N4CCN(C)CC4)cc3)c(=O)c12 [Compound I-60, (R)-2-amino-6-(4-(4-methylpiperazine-1-carbonyl)benzyl)-4-(pentan-2-ylamino)pyrimido[4,5-d]pyridazin-5(6H)-one] | 192 | –
9 | CCCCNc1nc(N)nc2cnn(Cc3ccc(CN4CCCC4)cc3OC)c(=O)c12 [Compound I-14, 2-amino-4-(butylamino)-6-(2-methoxy-4-(pyrrolidin-1-ylmethyl)benzyl)pyrimido[4,5-d]pyridazin-5(6H)-one] | 365 | –
10 | CCCCNc1nc(N)nc2cnn(Cc3ccc(CN4CCCC4)cc3)c(=O)c12 [Compound I-5, 2-amino-4-(butylamino)-6-(4-(pyrrolidin-1-ylmethyl)benzyl)pyrimido[4,5-d]pyridazin-5(6H)-one] | 149 | –
11 | CCC[C@@H](C)Nc1nc(N)nc2cnn(Cc3ccc(C4CCNCC4)cc3)c(=O)c12 [Compound I-55, (R)-2-amino-4-(pentan-2-ylamino)-6-(4-(piperidin-4-yl)benzyl)pyrimido[4,5-d]pyridazin-5(6H)-one] | 169 | –
12 | CCC[C@@H](C)Nc1nc(N)nc2cnn(Cc3ccc(CN4CCN(C)CC4)cc3)c(=O)c12 [Compound I-48, (R)-2-amino-6-(4-((4-methylpiperazin-1-yl)methyl)benzyl)-4-(pentan-2-ylamino)pyrimido[4,5-d]pyridazin-5(6H)-one] | 203 | 921

Molecules with a lower EC50 (human TLR8), results first:

Row | EC50 (human TLR8) [nM] | EC50 (human TLR7) [nM] | SMILES
13 | 125 | 785 | CCCN[C@@H](C)c1ccc(Cn2ncc3nc(N)nc(N[C@H](C)CCC)c3c2=O)cc1 [Compound I-52, 2-amino-4-(((R)-pentan-2-yl)amino)-6-(4-((S)-1-(propylamino)ethyl)benzyl)pyrimido[4,5-d]pyridazine-5(6H)-one]
14 | 107 | 407 | CCC[C@@H](C)Nc1nc(N)nc2cnn(Cc3ccc(C4CCN(C)CC4)cc3)c(=O)c12 [Compound I-57, (R)-2-amino-6-(4-(1-methylpiperidin-4-yl)benzyl)-4-(pentan-2-ylamino)pyrimido[4,5-d]pyridazin-5(6H)-one]
15 | 102 | – | CCCCNc1nc(N)nc2cnn(Cc3ccc(C(=O)N4CCNCC4)cc3)c(=O)c12 [Compound I-2, 2-amino-4-(butylamino)-6-(4-(piperazine-1-carbonyl)benzyl)pyrimido[4,5-d]pyridazin-5(6H)-one]
16 | 83 | 900 | CCC[C@@H](C)Nc1nc(N)nc2cnn(Cc3ccc(CN4CCCC4)cc3)c(=O)c12 [Compound I-40, (R)-2-amino-4-(pentan-2-ylamino)-6-(4-(pyrrolidin-1-ylmethyl)benzyl)pyrimido[4,5-d]pyridazin-5(6H)-one]
17 | 73 | 964 | CCC[C@@H](C)Nc1nc(N)nc2cnn(Cc3ccc(CN(C)CCO)cc3)c(=O)c12 [Compound I-49]
18 | 70 | 357 | CCC[C@@H](C)Nc1nc(N)nc2cnn(Cc3ccc(OCCNC)nc3)c(=O)c12 [Compound I-47, (R)-2-amino-6-((6-(2-(methylamino)ethoxy)pyridin-3-yl)methyl)-4-(pentan-2-ylamino)pyrimido[4,5-d]pyridazin-5(6H)-one]
19 | 70 | – | CCC[C@@H](C)Nc1nc(N)nc2cnn(Cc3ccc(C(=O)N4CCNCC4)cc3)c(=O)c12 [Compound I-56, (R)-2-amino-4-(pentan-2-ylamino)-6-(4-(piperazine-1-carbonyl)benzyl)pyrimido[4,5-d]pyridazin-5(6H)-one]
20 | 51 | – | CCCC[C@@H](CO)Nc1nc(N)nc2cnn(Cc3ccc(CN4CCCC4)cc3)c(=O)c12 [Compound I-67, (S)-2-amino-4-((1-hydroxyhexan-2-yl)amino)-6-(4-(pyrrolidin-1-ylmethyl)benzyl)pyrimido[4,5-d]pyridazin-5(6H)-one]
